Data: patent US9371295B2, “Compounds for use in the treatment of disorders that are ameliorated by inhibition of HDAC” (IRBM—Science Park S.p.A., priority 2012, dated 2016)
Each block holds one compound with its values, some of them ahead of it.

Experiments:
HDAC1 = molecular target: T1, HDAC1 (Homo sapiens, UniProt Q13547); assay: HDAC1 assay (Fluor-de-Lys fluorescent deacetylase assay); format: biochemical; settings: read-out: hHDAC IC50
T1 construct: made in house
How it was run: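 Serially diluted compounds were pre-incubated with purified FLAG-tagged HDAC1 (1-2 nM final; from transfected HeLa cells) or HeLa nuclear extract, then given the Fluor-de-Lys acetyl-lysine substrate/developer; deacetylation read as fluorescence. Reactions were stopped with TSA (3 uM final).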

[1] = Intrinsic clearance in pooled rat liver microsomes; format: in vitro ADME; settings: pH 7.4
Method: Assays were performed in presence of 0.5 mg/ml of microsomal protein, with a NADPH-generating system (1 mM NADP, 2.5 mM glucose 6-phosphate and 2 U/ml glucose 6-phosphate dehydrogenase) in 100 mM potassium phosphate buffer containing 3.3 mM MgCl2 (pH 7.4). Tested compounds were stored in 10 mM DMSO solution and incubated at 1 μM final concentration (final DMSO concentration in incubation less than 0.1%). Microsomes and substrates were preincubated at 37° C. for 5 min and then the enzymatic reactions were initiated by the addition of cofactors and incubated at 37° C. for up to 90 min. Incubations were terminated by the addition of an equivalent volume of cold acetonitrile containing I.S. Control incubations, where the substrate was incubated in the same buffer system containing pRLM without the NADPH-generating system, were also run.

[2] = Intrinsic clearance in pooled human liver microsomes; format: in vitro ADME; settings: pH 7.4
[3] = Intrinsic clearance in pooled mouse liver microsomes; format: in vitro ADME; settings: pH 7.4
[4] = Mouse in vivo pharmacokinetics, oral dose; settings: plasma
Method: Compounds of the invention were evaluated in in vitro and in vivo pharmacokinetic studies.

[5] = Rat PK studies, oral dose; format: in vivo, Sprague-Dawley rats; settings: male, Sprague-Dawley, plasma, po 10 mg/kg
Method: Rats Male Sprague-Dawley rats (250-350 g) were used for the absorption disposition studies. In each rat an indwelling cannula was implanted in the right jugular vein for blood sampling. The surgery was performed under light anaesthesia (Ketamine-Xilazine (85 mg/kg and 2.5 mg/kg respectively i.m.) one day prior the experiment). During the kinetic study, all animals were housed individually in plastic metabolism cages, and were unrestrained throughout the experiment. Compounds (6 mg/mL) were dissolved in 20% DMSO/60% PEG400/20% water for intravenous administration, and dissolved or suspended in 1% methylcellulose for oral administration (2 mg/ml). After an overnight fast, the rats received an i.v. (via caudal vein) or an oral dose of the compound. Blood samples were collected at different times point after dosing. Plasma was separated immediately after blood sampling by centrifugation, and the plasma samples were kept frozen (−20° C.) until assayed by LC/MS/MS.
Analytical procedures: Plasma samples were extracted using Liquid Handling Robot MultiProbe Packard by protein precipitation with acetonitrile. Then the samples were centrifuged (3000 rpm×15 min at 4° C.) and the supernatant transferred and dried under nitrogen. The samples were reconstituted in water/acetonitrile 90/10 and then injected directly into an HPLC column. Sample analyses were performed using a an API 3000 or/and API 2000 or/and API 4000 Mass Spectrometer interfaced via the Turbo Ion Spray (ESI)/APCI to an LC system consisting of an HTS PAL CTC autosampler and an Agilen HP 1100 Binary Pump. The results are calculated using Analyst Software linear regression with 1/x*x weighting. The Assay Precision was calculated for the Quality Controls by Watson Lims database.
Pharmacokinetic Analysis: The plasma clearance (CLp) of the compounds were calculated (using Watson PK program) as the dose divided by the area under the plasma concentration-time curve from time zero to infinity (AUC0-∞). The apparent half-life was estimated from the slope of the terminal phase of the log plasma concentration-time data. The volume of distribution (Vdss) was determined using the following noncompartmental method: Vdss=(Dose IV×AUMC)/(AUC0-∞)2
where AUMC is the total area under the first moment of the drug concentration time curve from time zero to infinity. Bioavailability was estimated as the AUC0-∞ ratio following oral and intravenous administration, normalized for differences in dose.

T1 sequence (Q13547 whole entry): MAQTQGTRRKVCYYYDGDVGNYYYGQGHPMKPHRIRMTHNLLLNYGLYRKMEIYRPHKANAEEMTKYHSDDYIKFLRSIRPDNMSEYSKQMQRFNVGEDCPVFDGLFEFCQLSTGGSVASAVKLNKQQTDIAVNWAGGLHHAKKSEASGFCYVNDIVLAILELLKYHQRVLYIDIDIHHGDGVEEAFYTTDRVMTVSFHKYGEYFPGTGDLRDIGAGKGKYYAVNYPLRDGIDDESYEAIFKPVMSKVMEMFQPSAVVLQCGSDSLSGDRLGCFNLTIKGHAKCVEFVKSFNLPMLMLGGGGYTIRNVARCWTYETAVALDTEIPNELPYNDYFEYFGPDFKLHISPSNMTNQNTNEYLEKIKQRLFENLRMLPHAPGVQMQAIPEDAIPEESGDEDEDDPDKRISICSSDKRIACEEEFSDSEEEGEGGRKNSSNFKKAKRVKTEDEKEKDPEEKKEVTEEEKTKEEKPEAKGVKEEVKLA

SMILES: CCC(=O)CCCCC[C@H](NC(=O)C1CCN(C)CC1)c1ncc(-c2cc3ccccc3n(C)c2=O)o1 [Compound 109, (S)-1-methyl-N-(1-(5-(1-methyl-2-oxo-1,2-dihydroquinolin-3-yl)oxazol-2-yl)-7-oxononyl)piperidine-4-carboxamide]
IC50 (HDAC1): < 100 nM

SMILES: CCC(=O)CCCCC[C@H](NC(=O)C1CN(C)C1)c1ncc(-c2cc3ccccc3nc2OC)o1 [Compound 2, (S)-N-(1-(5-(2-methoxyquinolin-3-yl)oxazol-2-yl)-7-oxononyl)-1-methylazetidine-3-carboxamide]
IC50 (HDAC1): < 100 nM | microsomal CLint at 1 μM [1]: 33 µL/min/mg | microsomal CLint at 1 μM [2]: 13 µL/min/mg | microsomal CLint at 1 μM [3]: 27 µL/min/mg | AUC ([4]; po 20 mg/kg): 22.4 µM·h | Cmax ([4]; po 20 mg/kg): 1870 nM | AUC [5]: 40 µM·h | Cmax [5]: 2790 nM

SMILES: CCC(=O)CCCCC[C@H](NC(=O)Cn1nc(C)nc1C)c1ncc(-c2cc3ccccc3nc2OC)o1 [Compound 80, (S)-2-(3,5-dimethyl-1H-1,2,4-triazol-1-yl)-N-(1-(5-(2-methoxyquinolin-3-yl)oxazol-2-yl)-7-oxononyl)acetamide]
IC50 (HDAC1): < 100 nM

SMILES: CCC(=O)CCCCC[C@H](NC(=O)c1cncs1)c1ncc(-c2cc3ccccc3n(C)c2=O)o1 [Compound 110, (S)-N-(1-(5-(1-methyl-2-oxo-1,2-dihydroquinolin-3-yl)oxazol-2-yl)-7-oxononyl)thiazole-5-carboxamide]
IC50 (HDAC1): < 100 nM

SMILES: CCC(=O)CCCCC[C@H](NC(=O)C1CN(C)C1)c1ncc(-c2cc3ccccc3n(C)c2=O)o1 [Compound 92, (S)-1-methyl-N-(1-(5-(1-methyl-2-oxo-1,2-dihydroquinolin-3-yl)oxazol-2-yl)-7-oxononyl)azetidine-3-carboxamide]
IC50 (HDAC1): < 100 nM | microsomal CLint at 1 μM [1]: 15 µL/min/mg | microsomal CLint at 1 μM [2]: < 5 µL/min/mg | microsomal CLint at 1 μM [3]: 13 µL/min/mg | AUC ([4]; po 10 mg/kg): 0.32 µM·h | Cmax ([4]; po 10 mg/kg): 100 nM

SMILES: CCC(=O)CCCCC[C@H](NC(=O)c1cnc(CN2CCCC2)s1)c1ncc(-c2cc3ccccc3nc2OC)o1 [Compound 82, (S)-N-(1-(5-(2-methoxyquinolin-3-yl)oxazol-2-yl)-7-oxononyl)-2-(pyrrolidin-1-ylmethyl)thiazole-5-carboxamide]
IC50 (HDAC1): < 100 nM

The remaining lines, values ahead:

IC50 (HDAC1): < 100 nM
SMILES: CCC(=O)CCCCC[C@H](NC(=O)C1(F)CN(C)C1)c1ncc(-c2cc3ccccc3nc2OC)o1 [Compound 67, (S)-3-fluoro-N-(1-(5-(2-methoxyquinolin-3-yl)oxazol-2-yl)-7-oxononyl)-1-methylazetidine-3-carboxamide]

IC50 (HDAC1): < 100 nM
SMILES: CCC(=O)CCCCC[C@H](NC(=O)C1(N(C)C)CCCC1)c1ncc(-c2cc3ccccc3n(C)c2=O)o1 [Compound 111, (S)-1-(dimethylamino)-N-(1-(5-(1-methyl-2-oxo-1,2-dihydroquinolin-3-yl)oxazol-2-yl)-7-oxononyl)cyclopentanecarboxamide]

IC50 (HDAC1): < 100 nM
SMILES: CCC(=O)CCCCC[C@H](NC(=O)C(C)(C)N(C)C)c1ncc(-c2cc3ccccc3n(C)c2=O)o1 [Compound 107, (S)-2-(dimethylamino)-2-methyl-N-(1-(5-(1-methyl-2-oxo-1,2-dihydroquinolin-3-yl)oxazol-2-yl)-7-oxononyl)propanamide]

IC50 (HDAC1): < 100 nM
SMILES: CCC(=O)CCCCC[C@H](NC(=O)CCN(C)C)c1ncc(-c2cc3ccccc3n(C)c2=O)o1 [Compound 106, (S)-3-(dimethylamino)-N-(1-(5-(1-methyl-2-oxo-1,2-dihydroquinolin-3-yl)oxazol-2-yl)-7-oxononyl)propanamide]

IC50 (HDAC1): < 100 nM
SMILES: CCC(=O)CCCCC[C@H](NC(=O)C(=O)N1CCN(C)CC1)c1ncc(-c2cc3ccccc3nc2OC)o1 [Compound 37, (S)-N-(1-(5-(2-methoxyquinolin-3-yl)oxazol-2-yl)-7-oxononyl)-2-(4-methylpiperazin-1-yl)-2-oxoacetamide]
